Like-named read-outs stand apart in the source and are kept apart here.
Assays:
Fyn = Fyn (Homo sapiens (Human), UniProt P06241); test: Z′-LYTE in vitro Fyn kinase activity assay; format: biochemical; conditions: ATP 50 μM; read-out: FYN KINASE INHIBITION IC50
Procedure: The Fyn kinase inhibitory activity of representative examples of compounds of Formula (1) was evaluated by Z′-LYTE™ Kinase Assay Platform (Invitrogen). Compounds were evaluated towards active Fyn (full length active, molecular weight 87.1 kDa; Invitrogen). […] Samples representing the 0% inhibition (or total enzymatic activity) were in the presence of compound diluent (1% DMSO final in Reaction Buffer 50 mMHepes, 10 mM MgCl2, 1 mM EGTA, 0.01% Brij-35, pH 7.5). The kinase reaction was carried out in a total volume of 10 μl, for 60 minutes at 25° C. The 0% Phosphorylation (i.e. no ATP) and 100% Phosphorylation Assay Controls, included in each plate, allowed to calculate the percent phosphorylation achieved in the specific reaction well. Results are expressed as percentage of inhibition and the IC50 values were calculated by non-linear curve fitting using GraphPad™ Prism software (version 6 for Windows).

NF-kB = test: Gene reporter (GR) assay, NF-kB activation after TNFα in JB6 Cl 41-5a (P+) cells; format: cell-based, murine; design: key to Gene reporter (GR) inhibition, no effect: ne: no effect; conditions: for inhibition at 3 µM / inhibition at 10 µM: read-out: Gene reporter (GR) inhibition % effect at max concentration; for IC50: TNFα 2 ng/ml, non toxic concentrations, read-out: Gene reporter (GR) inhibition IC50
Text: To determine if the compounds of the invention were active also in a cellular model, a gene reporter assay was established in a cell line (JB6 Cl 41-5a (P+)) know to activate Fyn kinase via an inflammatory stimuli (TNFα). GR assay measures the activation of the nuclear transcription factor NF-kB, situated down-stream the Fyn activation pathway. Products active in this analysis has to penetrate in the cell and inhibit the activation pathway of NF-kB.
The murine epithelial cell line JB6 Cl 41-5a (P+) (ATCC® Cat. #CRL-2010) was stably transfected with the pGL4.32[luc2P/NFkB-RE/Hygro] vector (Promega). Clonal selection was achieved by limiting with 80 μg/ml Hygromycin B. The clones were tested for their response to TNFα stimulus.
JB6(P+) NFkB-RE-luc2P transfected cells were used for the analysis of NF-kB activity modulation, after TNFα stimulation, by Fyn-inhibitors.
Cells were pre-treated with the different compounds for 1 h and then stimulated with 2 ng/ml TNFα for 4 h. Each tested condition was analyzed in quadruplicate.
The luciferase analysis was performed with ONE-Glo™+ToxLuciferase Reporter and Cell Viability Assay kit (Promega).

VEGFR2 = VEGFR2 (Homo sapiens (Human), UniProt P35968); test: In vitro VEGFR2 kinase activity assay (Eurofins Cerep); format: biochemical; conditions: read-out: VEGFR2 KINASE INHIBITION IC50
VEGFR2, sequence (P35968 20-1356): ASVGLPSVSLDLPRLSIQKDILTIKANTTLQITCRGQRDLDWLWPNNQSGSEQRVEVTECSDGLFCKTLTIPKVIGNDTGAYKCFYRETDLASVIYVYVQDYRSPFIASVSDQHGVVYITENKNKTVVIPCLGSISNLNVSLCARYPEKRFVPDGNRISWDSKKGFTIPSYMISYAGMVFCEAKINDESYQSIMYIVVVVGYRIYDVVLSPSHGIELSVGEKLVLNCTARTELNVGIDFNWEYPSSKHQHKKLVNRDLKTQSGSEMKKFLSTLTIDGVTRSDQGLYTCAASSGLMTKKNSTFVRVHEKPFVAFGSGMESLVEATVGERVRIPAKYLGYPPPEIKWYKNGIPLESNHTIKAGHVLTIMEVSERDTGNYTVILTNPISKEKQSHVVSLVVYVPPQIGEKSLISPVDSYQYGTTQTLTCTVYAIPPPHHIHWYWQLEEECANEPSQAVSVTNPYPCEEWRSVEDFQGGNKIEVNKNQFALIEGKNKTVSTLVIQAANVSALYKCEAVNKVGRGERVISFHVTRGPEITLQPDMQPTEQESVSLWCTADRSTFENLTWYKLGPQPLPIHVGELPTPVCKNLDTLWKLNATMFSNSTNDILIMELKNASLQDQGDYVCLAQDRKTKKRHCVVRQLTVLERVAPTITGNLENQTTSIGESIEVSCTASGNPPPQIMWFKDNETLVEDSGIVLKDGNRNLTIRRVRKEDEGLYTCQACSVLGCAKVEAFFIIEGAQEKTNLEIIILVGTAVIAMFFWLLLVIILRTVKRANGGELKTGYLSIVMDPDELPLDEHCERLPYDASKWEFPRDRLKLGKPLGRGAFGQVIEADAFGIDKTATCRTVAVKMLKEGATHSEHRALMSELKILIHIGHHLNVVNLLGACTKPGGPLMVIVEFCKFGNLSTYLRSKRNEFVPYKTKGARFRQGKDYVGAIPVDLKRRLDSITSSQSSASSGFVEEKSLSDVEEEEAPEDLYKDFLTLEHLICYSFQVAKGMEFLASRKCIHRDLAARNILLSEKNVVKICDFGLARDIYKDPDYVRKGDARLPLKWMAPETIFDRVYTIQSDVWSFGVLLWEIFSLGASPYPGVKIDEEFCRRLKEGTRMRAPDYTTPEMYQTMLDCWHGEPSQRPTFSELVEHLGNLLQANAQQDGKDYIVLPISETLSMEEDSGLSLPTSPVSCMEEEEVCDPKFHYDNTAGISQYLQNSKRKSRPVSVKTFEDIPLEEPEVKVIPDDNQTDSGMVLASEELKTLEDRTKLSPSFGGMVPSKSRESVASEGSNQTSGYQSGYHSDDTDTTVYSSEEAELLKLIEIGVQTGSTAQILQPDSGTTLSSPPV
Procedure: The VEGFR2 kinase inhibitory activity of representative examples of compounds of Formula (I) assays was evaluated in Eurofins Cerep (France). The concentration range of the inhibitors under investigation was from 10^−8 M up to 10^−5 M final concentration. Some compounds were re-tested in a concentration-range starting from 10^−9 M. The results are expressed as a percent of control activity (in the absence of test compound) and the IC50 values were determined by non-linear regression analysis of the inhibition/concentration curves generated with mean replicate values.

Fyn, sequence (P06241 whole entry): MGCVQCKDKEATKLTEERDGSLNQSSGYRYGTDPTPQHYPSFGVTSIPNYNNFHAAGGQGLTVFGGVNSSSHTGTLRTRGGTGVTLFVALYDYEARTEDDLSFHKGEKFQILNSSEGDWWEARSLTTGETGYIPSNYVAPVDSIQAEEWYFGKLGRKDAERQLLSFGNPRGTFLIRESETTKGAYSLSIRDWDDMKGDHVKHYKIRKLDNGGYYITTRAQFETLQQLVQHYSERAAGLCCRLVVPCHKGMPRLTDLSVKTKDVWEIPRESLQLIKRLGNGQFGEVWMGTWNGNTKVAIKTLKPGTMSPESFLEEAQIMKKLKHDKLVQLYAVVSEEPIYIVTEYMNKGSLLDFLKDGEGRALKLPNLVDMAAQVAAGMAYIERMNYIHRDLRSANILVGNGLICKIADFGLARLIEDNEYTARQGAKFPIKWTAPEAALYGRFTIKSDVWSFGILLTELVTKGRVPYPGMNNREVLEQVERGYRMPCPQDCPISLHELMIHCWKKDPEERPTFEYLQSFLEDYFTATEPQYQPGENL

Row | SMILES | IC50 (Fyn) [nM] | IC50 (VEGFR2) [nM] | IC50 (NF-kB; Mus musculus, JB6 Cl 41-5a) [nM] | also measured
1 | Cc1ccc(NC(=O)N2CCC3(CCC3)C2)cc1CCc1cc(Nc2nccnc2C)[nH]n1 [Compound 20, N-(4-methyl-3-(2-(5-((3-methylpyrazin-2-yl)amino)-1H-pyrazol-3-yl)ethyl)phenyl)-6-azaspiro[3.4]octane-6-carboxamide] | 18 |  |  | inhibition at 3 µM (NF-kB; Mus musculus, JB6 Cl 41-5a): 45%
2 | O=C(Nc1ccc(F)c(CCc2cc(Nc3cc4c(cn3)CN(CCO)C4)[nH]n2)c1)c1cccc(C(F)(F)F)c1 [Compound 10, N-(4-fluoro-3-(2-(5-((2-(2-hydroxyethyl)-2,3-dihydro-1H-pyrrolo[3,4-c]pyridin-6-yl)amino)-1H-pyrazol-3-yl)ethyl)phenyl)-3-(trifluoromethyl) benzamide] | 4 | < 10 | 2000 | 
3 | Cc1ccc(NC(=O)c2cccc(C(F)(F)F)c2)cc1CCc1cc(NC(=O)c2ccccn2)[nH]n1 [Compound 18, N-(5-(2-methyl-5-(3-(trifluoromethyl)benzamido)phenethyl)-1H-pyrazol-3-yl)picolinamide] | 15 | 16 | 974 | 
4 | Cc1nc(Nc2cc(CCc3cc(NC(=O)c4cccc(C(F)(F)F)c4)ccc3F)n[nH]2)cc(N2CCN(CCO)CC2)n1 [Compound 30, N-(4-fluoro-3-(2-(3-((6-(4-(2-hydroxyethyl)piperazin-1-yl)-2-methylpyrimidin-4-yl)amino)-1H-pyrazol-5-yl)ethyl)phenyl)-3-(trifluoromethyl) benzamide] |  |  |  | Gene reporter (GR) inhibition, no effect (NF-kB): ne
5 | Cc1ccc(NC(=O)NC2CCCC2)cc1CCc1cc(NC(=O)c2ccc(N3CCN(C)CC3)cc2)[nH]n1 [Compound 24, N-(3-(5-(3-cyclopentylureido)-2-methylphenethyl)-1H-pyrazol-5-yl)-4-(4-methylpiperazin-1-yl)benzamide] | 2 |  | 2330 | 
6 | Cc1nc(CN2CCCC2)cc(Nc2cc(CCc3cc(NC(=O)c4cccc(C(F)(F)F)c4)ccc3F)[nH]n2)n1 [Compound 28, N-(4-fluoro-3-(2-(3-((2-methyl-6-(pyrrolidin-1-ylmethyl)pyrimidin-4-yl)amino)-1H-pyrazol-5-yl)ethyl)phenyl)-3-(trifluoromethyl)benzamide] | 17 | < 10 |  | 
7 | CCC1(CC)CCN(C(=O)Nc2ccc(C)c(CCc3cc(Nc4cnccn4)[nH]n3)c2)C1 [Compound 22, 3,3-diethyl-N-(4-methyl-3-(2-(5-(pyrazin-2-ylamino)-1H-pyrazol-3-yl)ethyl)phenyl)pyrrolidine-1-carboxamide] | 7 |  | 1140 | 
8 | O=C(Nc1ccc(Cl)c(CCc2cc(Nc3cnccn3)[nH]n2)c1)c1cccc(C(F)(F)F)c1 [Compound 16, N-(4-chloro-3-(2-(5-(pyrazin-2-ylamino)-1H-pyrazol-3-yl)ethyl)phenyl)-3-(trifluoromethyl)benzamide] | 24 | < 10 | 321 | 
9 | Cc1nc(CN2C[C@@H](C)O[C@@H](C)C2)cc(Nc2cc(CCc3cc(NC(=O)c4cccc(C(F)(F)F)c4)ccc3F)[nH]n2)n1 [Compound 27, N-(3-(2-(3-((6-(((2S,6R)-2,6-dimethylmorpholino)methyl)-2-methylpyrimidin-4-yl)amino)-1H-pyrazol-5-yl)ethyl)-4-fluorophenyl)-3-(trifluoromethyl)benzamide] | 10 | 12 |  | 
10 | CCC1(CC)CCN(C(=O)Nc2ccc(C)c(CCc3cc(Nc4nccnc4C)[nH]n3)c2)C1 [Compound 21, 3,3-diethyl-N-(4-methyl-3-(2-(5-((3-methylpyrazin-2-yl)amino)-1H-pyrazol-3-yl)ethyl)phenyl)pyrrolidine-1-carboxamide] | 5 |  |  | inhibition at 3 µM (NF-kB; Mus musculus, JB6 Cl 41-5a): 37%
11 | Cc1ccc(NC(=O)NC2CCC(C)(C)CC2)cc1CCc1cc(NC(=O)c2ccc(OC3CN(C(C)C)C3)cc2)[nH]n1 [Compound 23, N-(3-(5-(3-(4,4-dimethylcyclohexyl)ureido)-2-methylphenethyl)-1H-pyrazol-5-yl)-4-((1-isopropylazetidin-3-yl)oxy)benzamide] | 5 |  | 1440 | 
12 | Cc1nc(CN2CCOCC2)cc(Nc2cc(CCc3cc(NC(=O)c4cccc(C(F)(F)F)c4)ccc3F)[nH]n2)n1 [Compound 26, N-(4-fluoro-3-(2-(3-((2-methyl-6-(morpholinomethyl)pyrimidin-4-yl)amino)-1H-pyrazol-5-yl)ethyl)phenyl)-3-(trifluoromethyl)benzamide] | 12 | < 10 |  | inhibition at 3 µM (NF-kB; Mus musculus, JB6 Cl 41-5a): 50%
13 | Cc1ccc(NC(=O)NC2CCC(C)(C)CC2)cc1CCc1cc(NC(=O)c2ccc(C3CCN(C)CC3)cc2)[nH]n1 [Compound 25, N-(3-(5-(3-(4,4-dimethylcyclohexyl)ureido)-2-methylphenethyl)-1H-pyrazol-5-yl)-4-(1-methylpiperidin-4-yl)benzamide] | 3 |  |  | IC50 (NF-kB): 1420 nM
14 | Cc1nc(Nc2cc(CCc3cc(NC(=O)c4cccc(C(F)(F)F)c4)ccc3F)n[nH]2)cc(N2CC[C@H](N(C)C)C2)n1 [Compound 32, (S)-N-(3-(2-(3-((6-(3-(dimethylamino)pyrrolidin-1-yl)-2-methylpyrimidin-4-yl)amino)-1H-pyrazol-5-yl)ethyl)-4-fluorophenyl)-3-(trifluoromethyl)benzamide] | 9 | < 10 |  | inhibition at 3 µM (NF-kB; Mus musculus, JB6 Cl 41-5a): 29%
15 | Cc1nc(Nc2cc(CCc3cc(NC(=O)c4cccc(C(F)(F)F)c4)ccc3F)n[nH]2)cc(N2CC(O)C2)n1 [Compound 31, N-(4-fluoro-3-(2-(3-((6-(3-hydroxyazetidin-1-yl)-2-methylpyrimidin-4-yl)amino)-1H-pyrazol-5-yl)ethyl)phenyl)-3-(trifluoromethyl)benzamide] |  |  |  | inhibition at 10 µM (NF-kB; Mus musculus, JB6 Cl 41-5a): 47%

Second part, led by results:

Row | IC50 (Fyn) [nM] | IC50 (VEGFR2) [nM] | SMILES | IC50 (NF-kB; Mus musculus, JB6 Cl 41-5a) [nM] | also measured
16 | 8 |  | Cc1ccc(NC(=O)c2ccnc(C(C)(C)C#N)c2)cc1CCc1cnc(Nc2cnccn2)s1 [Compound 50, 2-(2-cyanopropan-2-yl)-N-(4-methyl-3-(2-(2-(pyrazin-2-ylamino)thiazol-5-yl)ethyl)phenyl)isonicotinamide] |  | inhibition at 3 µM (NF-kB; Mus musculus, JB6 Cl 41-5a): 86%
17 | 32 | < 10 | Cc1ccc(NC(=O)c2ccnc(C(C)(C)C#N)c2)cc1CCc1cc(Nc2ncccc2C)[nH]n1 [Compound 36, 2-(2-cyanopropan-2-yl)-N-(4-methyl-3-(2-(5-((3-methylpyridin-2-yl)amino)-1H-pyrazol-3-yl)ethyl)phenyl)isonicotinamide] | 494 | 
18 | 13 | 20 | Cc1nc(Nc2cc(CCc3cc(NC(=O)c4cccc(C(F)(F)F)c4)ccc3F)[nH]n2)cc(-c2cnn(CCO)c2)n1 [Compound 42, N-(4-fluoro-3-(2-(3-((6-(1-(2-hydroxyethyl)-1H-pyrazol-4-yl)-2-methylpyrimidin-4-yl)amino)-1H-pyrazol-5-yl)ethyl)phenyl)-3-(trifluoromethyl)benzamide] |  | inhibition at 10 µM (NF-kB; Mus musculus, JB6 Cl 41-5a): 56%
19 | 19 | 10 | Cc1nc(Nc2cc(CCc3ccc(F)c(NC(=O)c4cccc(C(F)(F)F)c4)c3)n[nH]2)cc(N2CCOCC2)n1 [Compound 43, N-(2-fluoro-5-(2-(5-((2-methyl-6-morpholinopyrimidin-4-yl)amino)-1H-pyrazol-3-yl)ethyl)phenyl)-3-(trifluoromethyl)benzamide] | 2440 | 
20 | 10 | 10 | CN(C)Cc1ccc(C(=O)Nc2cccc(CCc3cc(NC(=O)c4ccc(N5CCOCC5)cc4)[nH]n3)c2)cc1 [Compound 47, 4-((dimethylamino)methyl)-N-(3-(2-(5-(4-morpholinobenzamido)-1H-pyrazol-3-yl)ethyl)phenyl)benzamide] |  | Gene reporter (GR) inhibition, no effect (NF-kB): ne
21 | 2 |  | Cc1nc(C#N)cc(Nc2cc(CCc3cc(NC(=O)N4CCC5(CCCC5)CC4)ccc3C)n[nH]2)n1 [Compound 38, N-(3-(2-(5-((6-cyano-2-methylpyrimidin-4-yl)amino)-1H-pyrazol-3-yl)ethyl)-4-methylphenyl)-8-azaspiro [4.5] decane-8-carboxamide] |  | inhibition at 10 µM (NF-kB; Mus musculus, JB6 Cl 41-5a): 25%

— patent US12509446B2, “FYN and VEGFR2 kinase inhibitors” (ROTTAPHARM BIOTECH S.R.L., priority 2019, dated 2025)
